Source: ChEMBL document CHEMBL1201861, “Genomics of Drug Sensitity in Cancer screening data, Wellcome Trust Sanger Institute”

Assays:
Format in all cases: functional, cell-based
COR-L279 = test: SANGER: Inhibition of human COR-L279 cell growth in a cell viability assay.
DMS-153 = test: cells; details: Homo sapiens
Description: SANGER: Inhibition of human DMS-153 cell growth in a cell viability assay.

IM-9 = test: SANGER: Inhibition of human IM-9 cell growth in a cell viability assay.
IMR-5 = test: cells; details: Homo sapiens;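 further: growth inhibition of human IMR-5 cells, read out with a cell viability assay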
Description: SANGER: Inhibition of human IMR-5 cell growth in a cell viability assay.

IST-SL2 = test: cells; details: Homo sapiens;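 further: growth inhibition of human IST-SL2 cells, read out by a cell viability assay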
Description: SANGER: Inhibition of human IST-SL2 cell growth in a cell viability assay.

K052 = test: cells; details: Homo sapiens;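 further: Read-out from a cell viability assay, IC50 reflecting suppression of K052 cell growth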
Description: SANGER: Inhibition of human K052 cell growth in a cell viability assay.

LOUCY = test: cells; details: Homo sapiens;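 further: growth inhibition of human LOUCY cells, read out with a cell viability assay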
Description: SANGER: Inhibition of human LOUCY cell growth in a cell viability assay.

MOLT-13 = test: cells; details: Homo sapiens;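 further: IC50 for suppression of MOLT-13 cell growth, read out with a cell viability assay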
Description: SANGER: Inhibition of human MOLT-13 cell growth in a cell viability assay.

NALM-6 = test: cells; details: Homo sapiens;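 further: growth inhibition of NALM-6 cells, read out with a cell viability assay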
Description: SANGER: Inhibition of human NALM-6 cell growth in a cell viability assay.

NB1 = test: cells; details: Homo sapiens;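 further: reduction of NB1 cell proliferation, read out with a viability assay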
Description: SANGER: Inhibition of human NB1 cell growth in a cell viability assay.

NCI-H1436 = test: cells; details: Homo sapiens;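 further: growth suppression of human NCI-H1436 cells, determined with a cell viability readout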
Description: SANGER: Inhibition of human NCI-H1436 cell growth in a cell viability assay.

NCI-H2081 = test: cells; details: Homo sapiens;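 further: growth inhibition of human NCI-H2081 cells, read out with a cell viability assay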
Description: SANGER: Inhibition of human NCI-H2081 cell growth in a cell viability assay.

NCI-H748 = test: cells; details: Homo sapiens;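 further: growth inhibition of NCI-H748 cells, measured by a cell viability assay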
Description: SANGER: Inhibition of human NCI-H748 cell growth in a cell viability assay.

SIMA = test: cells; details: Homo sapiens;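 further: growth inhibition of SIMA cells, measured with a cell viability readout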
Description: SANGER: Inhibition of human SIMA cell growth in a cell viability assay.

ST486 = test: SANGER: Inhibition of human ST486 cell growth in a cell viability assay.
BOKU = test: cells; details: Homo sapiens;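 further: growth inhibition of the human BOKU cell line, read out by a cell viability assay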
Description: SANGER: Inhibition of human BOKU cell growth in a cell viability assay.

TGW = test: cells; details: Homo sapiens;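 further: growth inhibition of human TGW cells, read out with a cell viability assay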
Description: SANGER: Inhibition of human TGW cell growth in a cell viability assay.

WSU-NHL = test: cells; details: Homo sapiens;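 further: growth inhibition of human WSU-NHL cells, read out with a cell viability assay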
Description: SANGER: Inhibition of human WSU-NHL cell growth in a cell viability assay.

CMK = test: cells; details: Homo sapiens;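 further: growth inhibition of CMK cells, read out as cell viability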
Description: SANGER: Inhibition of human CMK cell growth in a cell viability assay.

CP50-MEL-B = test: cells; details: Homo sapiens;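 further: growth inhibition of the human cell line, measured with a cell viability read-out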
Description: SANGER: Inhibition of human CP50-MEL-B cell growth in a cell viability assay.

Calu-3 = test: cells; details: Homo sapiens;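 further: growth inhibition of human Calu-3 cells, determined with a cell viability assay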
Description: SANGER: Inhibition of human Calu-3 cell growth in a cell viability assay.

Daoy = test: cells; details: Homo sapiens;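 further: daoy cell growth inhibition, read out as cell viability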
Description: SANGER: Inhibition of human Daoy cell growth in a cell viability assay.

FaDu = test: cells; details: Homo sapiens;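 further: cell viability readout of growth inhibition in FaDu cells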
Description: SANGER: Inhibition of human FADU cell growth in a cell viability assay.

HCC1419 = test: cells; details: Homo sapiens;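 further: growth inhibition of human HCC1419 cells, read out as cell viability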
Description: SANGER: Inhibition of human HCC1419 cell growth in a cell viability assay.

HCC1569 = test: cells; details: Homo sapiens;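 further: growth inhibition of human HCC1569 cells, read out with a cell viability assay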
Description: SANGER: Inhibition of human HCC1569 cell growth in a cell viability assay.

HO-1-N-1 = test: cells; details: Homo sapiens;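 further: growth inhibition of human HO-1-N-1 cells, read out with a cell viability assay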
Description: SANGER: Inhibition of human HO-1-N-1 cell growth in a cell viability assay.

HPAF-II = test: cells; details: Homo sapiens;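 further: growth inhibition of HPAF-II cells, read out with a cell viability assay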
Description: SANGER: Inhibition of human HPAF-II cell growth in a cell viability assay.

HTC-C3 = test: cells; details: Homo sapiens;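 further: inhibition of cell growth, read out with a cell viability assay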
Description: SANGER: Inhibition of human HTC-C3 cell growth in a cell viability assay.

KU-19-19 = test: cells; details: Homo sapiens
Description: SANGER: Inhibition of human KU-19-19 cell growth in a cell viability assay.

KYSE-410 = test: cells; details: Homo sapiens;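 further: growth inhibition of KYSE-410 cells, measured through a cell viability readout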
Description: SANGER: Inhibition of human KYSE-410 cell growth in a cell viability assay.

KYSE-450 = test: cells; details: Homo sapiens;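 further: cell growth inhibition measured by a viability assay in human KYSE-450 cells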
Description: SANGER: Inhibition of human KYSE-450 cell growth in a cell viability assay.

KYSE-70 cell line = test: cells; details: Homo sapiens;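 further: cell viability assay read-out, with IC50 expressing suppression of KYSE-70 cell growth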
Description: SANGER: Inhibition of human KYSE-70 cell growth in a cell viability assay.

MCF7 = test: cells; details: Homo sapiens;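 further: growth inhibition of human MCF7 cells, read out with a cell viability assay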
Description: SANGER: Inhibition of human MCF7 cell growth in a cell viability assay.

MDA-MB-231 = test: cells; details: Homo sapiens
Description: SANGER: Inhibition of human MDA-MB-231 cell growth in a cell viability assay.

NCI-H1573 = test: cells; details: Homo sapiens;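 further: growth inhibition of NCI-H1573 cells, read out with a cell viability assay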
Description: SANGER: Inhibition of human NCI-H1573 cell growth in a cell viability assay.

NCI-H1693 = test: cells; details: Homo sapiens;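 further: growth inhibition of the human cell line, read out with a cell viability assay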
Description: SANGER: Inhibition of human NCI-H1693 cell growth in a cell viability assay.

NCI-H1993 = test: cells; details: Homo sapiens;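 further: growth inhibition of the cancer cell line, assessed with a cell viability assay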
Description: SANGER: Inhibition of human NCI-H1993 cell growth in a cell viability assay.

NCI-H2228 = test: cells; details: Homo sapiens;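 further: growth inhibition of human NCI-H2228 cells, read out by a cell viability assay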
Description: SANGER: Inhibition of human NCI-H2228 cell growth in a cell viability assay.

NCI-H2452 = test: cells; details: Homo sapiens;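 further: growth inhibition of NCI-H2452 cells, read out with a cell viability assay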
Description: SANGER: Inhibition of human NCI-H2452 cell growth in a cell viability assay.

OE19 = test: cells; details: Homo sapiens;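 further: growth inhibition of OE19 cells, measured through a cell viability read-out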
Description: SANGER: Inhibition of human OE19 cell growth in a cell viability assay.

Panc1005 = test: cells; details: Homo sapiens;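 further: growth inhibition of human PANC-10-05 cells, measured by a cell viability assay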
Description: SANGER: Inhibition of human PANC-10-05 cell growth in a cell viability assay.

PFSK-1 = test: cells; details: Homo sapiens;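 further: cell viability assay measuring how strongly compounds suppress growth of human PFSK-1 cells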
Description: SANGER: Inhibition of human PFSK-1 cell growth in a cell viability assay.

SAS = test: cells; details: Homo sapiens;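 further: growth inhibition of SAS cells, read out with a cell viability assay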
Description: SANGER: Inhibition of human SAS cell growth in a cell viability assay.

SCC-9 = test: cells; details: Homo sapiens;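 further: Read-out is a cell viability assay, with values giving inhibition of cell growth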
Description: SANGER: Inhibition of human SCC-9 cell growth in a cell viability assay.

SJRH30 = test: cells; details: Homo sapiens;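 further: growth inhibition of human SJRH30 cells, read out with a cell viability assay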
Description: SANGER: Inhibition of human SJRH30 cell growth in a cell viability assay.

SNU-449 = test: cells; details: Homo sapiens
Description: SANGER: Inhibition of human SNU-449 cell growth in a cell viability assay.

SW13 = test: cells; details: Homo sapiens;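 further: IC50 is inhibition of SW13 cell growth, read out with a cell viability assay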
Description: SANGER: Inhibition of human SW13 cell growth in a cell viability assay.

SW1417 = test: cells; details: Homo sapiens;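 further: growth inhibition of human SW1417 cells, read out with a cell viability assay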
Description: SANGER: Inhibition of human SW1417 cell growth in a cell viability assay.

SW1710 = test: cells; details: Homo sapiens;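 further: growth inhibition of SW1710 cells, determined with a cell viability assay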
Description: SANGER: Inhibition of human SW1710 cell growth in a cell viability assay.

SW1990 = test: cells; details: Homo sapiens
Description: SANGER: Inhibition of human SW1990 cell growth in a cell viability assay.

SW756 = test: cells; details: Homo sapiens;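 further: growth inhibition of human SW756 cells, read out with a cell viability assay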
Description: SANGER: Inhibition of human SW756 cell growth in a cell viability assay.

SW780 = test: cells; details: Homo sapiens;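 further: growth inhibition of the cells, read out with a cell viability assay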
Description: SANGER: Inhibition of human SW780 cell growth in a cell viability assay.

CWR22R = test: cells; details: Homo sapiens, 22Rv1;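 further: growth inhibition of 22Rv1 cells, read out with a cell viability assay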
Description: SANGER: Inhibition of human 22RV1 cell growth in a cell viability assay.

639-V = test: cells; details: Homo sapiens;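 further: growth inhibition of 639-V cells, read out with a cell viability assay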
Description: SANGER: Inhibition of human 639-V cell growth in a cell viability assay.

769-P = test: cells; details: Homo sapiens
Description: SANGER: Inhibition of human 769-P cell growth in a cell viability assay.

8505C = test: cells; details: Homo sapiens
Description: SANGER: Inhibition of human 8505C cell growth in a cell viability assay.

ASPC1 = test: cells; details: Homo sapiens;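 further: growth inhibition of AsPC-1 cells, read out with a cell viability assay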
Description: SANGER: Inhibition of human AsPC-1 cell growth in a cell viability assay.

BEN = test: cells; details: Homo sapiens
Description: SANGER: Inhibition of human BEN cell growth in a cell viability assay.

BT-20 = test: cells; details: Homo sapiens
Description: SANGER: Inhibition of human BT-20 cell growth in a cell viability assay.

UACC-893 = test: cells; details: Homo sapiens
Description: SANGER: Inhibition of human UACC-893 cell growth in a cell viability assay.

VM-CUB-1 = test: cells; details: Homo sapiens
Description: SANGER: Inhibition of human VM-CUB-1 cell growth in a cell viability assay.

VMRC-RCZ = test: cells; details: Homo sapiens
Description: SANGER: Inhibition of human VMRC-RCZ cell growth in a cell viability assay.

CHP-212 = test: cells; details: Homo sapiens
Description: SANGER: Inhibition of human CHP-212 cell growth in a cell viability assay.

COLO-678 = test: cells; details: Homo sapiens
Description: SANGER: Inhibition of human COLO-678 cell growth in a cell viability assay.

COc1cc(C)c(Sc2cnc(NC(=O)c3ccc(CNC(C)C(C)(C)C)cc3)s2)cc1C(=O)N1CCN(C(C)=O)CC1 (stereo not given)
IC50 (COR-L279): > 10200 nM
IC50 (DMS-153): > 10200 nM
IC50 (IM-9): > 10200 nM
IC50 (IMR-5): > 10200 nM
IC50 (IST-SL2): > 10200 nM
IC50 (K052): > 10200 nM
IC50 (LOUCY): > 10200 nM
IC50 (MOLT-13): > 10.2 µM
IC50 (NALM-6): 10 µM
IC50 (NB1): > 10200 nM
IC50 (NCI-H1436): > 10200 nM
IC50 (NCI-H2081): > 10200 nM
IC50 (NCI-H748): > 10200 nM
IC50 (SIMA): > 10200 nM
IC50 (ST486): > 10200 nM
IC50 (BOKU): > 10200 nM
IC50 (TGW): > 10200 nM
IC50 (WSU-NHL): > 10200 nM
IC50 (CMK): > 10200 nM

CO[C@@]12[C@H](COC(N)=O)C3=C(C(=O)C(C)=C(N)C3=O)N1C[C@@H]1N[C@@H]12 [MITOMYCIN]
IC50 (COR-L279): < 62.5 nM
IC50 (CP50-MEL-B): 780 nM
IC50 (Calu-3): 321 nM
IC50 (DMS-153): 425 nM
IC50 (Daoy): 88 nM
IC50 (FaDu): 128 nM
IC50 (HCC1419): 3.48 µM
IC50 (HCC1569): 645 nM
IC50 (HO-1-N-1): 441 nM
IC50 (HPAF-II): 1100 nM
IC50 (HTC-C3): 5790 nM
IC50 (IM-9): 56.2 nM
IC50 (IMR-5): < 62.5 nM
IC50 (IST-SL2): 388 nM
IC50 (K052): 149 nM
IC50 (KU-19-19): 3360 nM
IC50 (KYSE-410): 584 nM
IC50 (KYSE-450): 563 nM
IC50 (KYSE-70 cell line): 224 nM
IC50 (LOUCY): 26.2 nM
IC50 (MCF7): < 62.5 nM
IC50 (MDA-MB-231): 3240 nM
IC50 (NALM-6): < 0.0625 µM
IC50 (NB1): 187 nM
IC50 (NCI-H1436): 1930 nM
IC50 (NCI-H1573): 1460 nM
IC50 (NCI-H1693): 900 nM
IC50 (NCI-H1993): > 16 µM
IC50 (NCI-H2081): 741 nM
IC50 (NCI-H2228): < 62.5 nM
IC50 (NCI-H2452): 8.94 µM
IC50 (NCI-H748): 59.5 nM
IC50 (OE19): 365 nM
IC50 (Panc1005): 73.7 nM
IC50 (PFSK-1): 5880 nM
IC50 (SAS): 615 nM
IC50 (SCC-9): 3790 nM
IC50 (SIMA): 241 nM
IC50 (SJRH30): 1670 nM
IC50 (SNU-449): 3360 nM
IC50 (ST486): 494 nM
IC50 (SW13): 642 nM
IC50 (SW1417): 1010 nM
IC50 (SW1710): 72.6 nM
IC50 (SW1990): 637 nM
IC50 (SW756): 597 nM
IC50 (SW780): > 16 µM
IC50 (CWR22R): 144 nM
IC50 (639-V): < 62.5 nM
IC50 (769-P): < 62.5 nM
IC50 (8505C): 430 nM
IC50 (ASPC1): 2900 nM
IC50 (BEN): 935 nM
IC50 (BOKU): 104 nM
IC50 (BT-20): 312 nM
IC50 (TGW): 2760 nM
IC50 (UACC-893): 418 nM
IC50 (VM-CUB-1): 261 nM
IC50 (VMRC-RCZ): 199 nM
IC50 (WSU-NHL): 192 nM
IC50 (CHP-212): < 62.5 nM
IC50 (CMK): < 62.5 nM
IC50 (COLO-678): 2890 nM

C/C=C(/C)C(=O)O[C@H]1C(C)=C2[C@H]([C@@H]1OC(=O)CCCCCCC)[C@@](C)(OC(C)=O)C[C@H](OC(=O)CCC)[C@@]1(O)[C@H]2OC(=O)[C@@]1(C)O [THAPSIGARGIN]
IC50 (COR-L279): 36.3 nM
IC50 (CP50-MEL-B): 11.1 nM
IC50 (Calu-3): > 512 nM
IC50 (DMS-153): 19.9 nM
IC50 (Daoy): 5.34 nM
IC50 (FaDu): 169 nM
IC50 (HCC1419): > 0.512 µM
IC50 (HCC1569): 17.9 nM
IC50 (HO-1-N-1): > 512 nM
IC50 (HPAF-II): 61.9 nM
IC50 (HTC-C3): 21.7 nM
IC50 (IM-9): > 512 nM
IC50 (IMR-5): 15.6 nM
IC50 (IST-SL2): 6.76 nM
IC50 (K052): 495 nM
IC50 (KU-19-19): 80 nM
IC50 (KYSE-410): < 2 nM
IC50 (KYSE-450): 0.777 nM
IC50 (KYSE-70 cell line): < 2 nM
IC50 (LOUCY): 29.9 nM
IC50 (MCF7): < 2 nM
IC50 (MDA-MB-231): 0.557 nM
IC50 (NALM-6): < 0.002 µM
IC50 (NB1): 27.1 nM
IC50 (NCI-H1436): > 512 nM
IC50 (NCI-H1573): 1.62 nM
IC50 (NCI-H1693): > 512 nM
IC50 (NCI-H1993): > 0.512 µM
IC50 (NCI-H2081): > 512 nM
IC50 (NCI-H2228): 8 nM
IC50 (NCI-H2452): > 0.512 µM
IC50 (NCI-H748): 31.3 nM
IC50 (OE19): 36.5 nM
IC50 (Panc1005): 26.1 nM
IC50 (PFSK-1): 12.8 nM
IC50 (SAS): 106 nM
IC50 (SCC-9): 447 nM
IC50 (SIMA): 38.4 nM
IC50 (SJRH30): 8.84 nM
IC50 (SNU-449): 4.18 nM
IC50 (ST486): 1.77 nM
IC50 (SW13): 9.38 nM
IC50 (SW1417): 335 nM
IC50 (SW1710): < 2 nM
IC50 (SW1990): < 2 nM
IC50 (SW756): 12.7 nM
IC50 (SW780): > 0.512 µM
IC50 (CWR22R): 1.17 nM
IC50 (639-V): 0.512 nM
IC50 (769-P): 32.3 nM
IC50 (8505C): < 2 nM
IC50 (ASPC1): > 512 nM
IC50 (BEN): 13.9 nM
IC50 (BOKU): > 512 nM
IC50 (BT-20): > 512 nM
IC50 (TGW): 4.73 nM
IC50 (UACC-893): 58.7 nM
IC50 (VM-CUB-1): 22 nM
IC50 (VMRC-RCZ): 11.2 nM
IC50 (WSU-NHL): 5.54 nM
IC50 (CHP-212): 3 nM
IC50 (CMK): 33.3 nM
IC50 (COLO-678): > 512 nM
